Patent US11072634B2, “Inhibitors of transglutaminases” (Zedira GmbH, priority 2016, dated 2021)
pIC50: −log10 of the molar value.

molecular target: T1, recombinant human tissue transglutaminase (rhTG2) (Homo sapiens, UniProt P21980); test: Inhibition of rec. human tissue transglutaminase (fluorescence, Abz-APE(CAD-DNP)QEA-OH); type: biochemical; details: Table 2, TG2 inhibitors
T1 construct: purchased Zedira 1022 (so in the source); T022)
T1 sequence (P21980 1-687): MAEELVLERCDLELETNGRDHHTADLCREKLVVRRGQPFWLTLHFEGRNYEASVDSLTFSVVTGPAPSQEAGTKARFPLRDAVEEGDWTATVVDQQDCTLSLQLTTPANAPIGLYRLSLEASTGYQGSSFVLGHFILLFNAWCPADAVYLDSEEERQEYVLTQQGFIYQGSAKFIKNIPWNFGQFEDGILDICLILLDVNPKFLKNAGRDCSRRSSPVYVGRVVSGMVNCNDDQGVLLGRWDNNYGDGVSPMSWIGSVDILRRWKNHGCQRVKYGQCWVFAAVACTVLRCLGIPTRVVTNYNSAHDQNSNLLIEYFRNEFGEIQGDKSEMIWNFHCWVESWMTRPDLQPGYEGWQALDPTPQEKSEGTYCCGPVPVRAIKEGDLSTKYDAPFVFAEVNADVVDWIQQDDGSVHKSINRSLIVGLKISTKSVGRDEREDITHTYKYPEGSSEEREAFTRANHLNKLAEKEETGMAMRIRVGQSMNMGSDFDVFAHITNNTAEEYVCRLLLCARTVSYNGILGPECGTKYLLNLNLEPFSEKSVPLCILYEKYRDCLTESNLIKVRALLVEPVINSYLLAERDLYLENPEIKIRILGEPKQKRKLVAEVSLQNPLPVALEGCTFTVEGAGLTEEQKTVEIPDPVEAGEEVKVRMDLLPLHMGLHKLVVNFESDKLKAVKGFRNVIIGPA
Protocol: Method for Inhibition Studies of Rec. Human Tissue Transglutaminase (rhTG2)
250 μg lyophilized His-tagged recombinant human tissue transglutaminase (His6-rhTG2, Zedira product 1022) is reconstituted in H2O (volume depends on original volume before lyophilization) resulting in a buffer containing 10 mM Tris-HCl, 150 mM NaCl, 1 mM EDTA, 5 mM DTT, 189 mg/ml maltodextrin, pH=8.1. The rhTG2 stock solution is diluted in buffer (50 mM Tris-HCl, 7.5 mM CaCl2, 150 mM NaCl, pH=7.4) to give a working solution of 100 U/ml (based on the amine-incorporation activity measured using T036, described below).
A 10 mM inhibitor stock solution is prepared in DMSO, and from this stock solution a serial 1:2-fold dilution series is prepared, also in DMSO. Each of these initial dilutions is subsequently diluted 1:50-fold with buffer (50 mM Tris-HCl, 7.5 mM CaCl2, 150 mM NaCl, pH=7.4) to yield the final working dilutions containing 2% (v/v) DMSO. 15 μl of inhibitor working dilution are added per well of a 96 well microtiter plate. As control, 15 μl of a 2% (v/v) DMSO solution prepared using the buffer mentioned above are added per well.
600 μl of His6-rhTG2 working solution are added to 11.4 ml assay buffer (50 mM Iris-HCl, 7.5 mM CaCl2, 150 mM NaCl, 5 mM DTI, 13.4 mM glycine methylester, 50 μM Abz-APE(CAD-DNP)QEA-OH, (Zedira product A102; patent No.: EP 1781807B1), pH=7.4). From this master-mix solution, 285 μl are added per well containing the inhibitor. Increase in fluorescence is measured using λex=313 nm and λem=418 nm at 37° C. for 20 min. A slope of the increase in fluorescence between 10 and 20 min is calculated for determination of the IC50 value (inhibitor concentration at which 50% of the initial TG2 activity is blocked).
Analysis of enzymatic activity is performed by calculation of the slope of an increase in fluorescence intensity. IC50 values are calculated by plotting the enzymatic activity (as percentage from control containing 2% DMSO instead of inhibitor) against the inhibitor concentration. IC50 is defined as the inhibitor concentration blocking 50%) of initial enzyme activity.

pIC50 | SMILES
6.35 | CCC(CC)CNC(=O)Cn1cccc(NC(=O)[C@H](CCC(=O)C(N)=O)NC(=O)c2cnccn2)c1=O [Compound E11, (S)—N1-(1-(2-(2-ethylbutylamino)-2-oxoethyl)-2-oxo-1,2-dihydropyridin-3-yl)-5-oxo-2-(pyrazine-2-carboxamido)hexanediamide]
6.02 | CCC(CC)CNC(=O)Cn1cccc(NC(=O)[C@H](CCC(=O)C(N)=O)NC(=O)c2ccccc2)c1=O [Compound E12, (S)-2-benzamido-N1-(1-(2-(2-ethylbutylamino)-2-oxoethyl)-2-oxo-1,2-dihydropyridin-3-yl)-5-oxonexanediamide]
6.15 | CCC(CC)CNC(=O)Cn1cccc(NC(=O)[C@H](CCC(=O)C(N)=O)NC(=O)c2cc([N+](=O)[O-])ccc2C)c1=O [Compound E13]
6.60 | CCC(CC)CNC(=O)Cn1cccc(NC(=O)[C@H](CCC(=O)C(N)=O)NC(=O)c2scnc2C)c1=O [Compound E14, (S)—N1-(1-(2-(2-ethylbutylamino)-2-oxoethyl)-2-oxo-1,2-dihydropyridin-3-yl)-2-(4-methylthiazole-5-carboxamido)-5-oxohexanediamide]
5.22 | CCC(CC)CNC(=O)Cn1cccc(NC(=O)[C@H](CCC(=O)C(N)=O)NS(=O)(=O)c2cccc3c(N(C)C)cccc23)c1=O [Compound E15, (S)-2-(5-(dimethylamino)naphthalene-1-sulfonamido)-N1-(1-(2-(2-ethylbutylamino)-2-oxoethyl)-2-oxo-1,2-dihydropyridin-3-yl)-5-oxonexanediamide]
7.00 | CCNC(=O)C(=O)CC[C@H](NC(=O)c1cncn1C)C(=O)Nc1cccn(CC(=O)NCC(CC)CC)c1=O [Compound E17, (S)—N1-ethyl-N6-(1-(2-(2-ethylbutylamino)-2-oxoethyl)-2-oxo-1,2-dihydropyridin-3-yl)-5-(1-methyl-1H-imidazole-5-carboxamido)-2-oxonexanediamide]
6.90 | CCCCCNC(=O)C(=O)CC[C@H](NC(=O)c1cncn1C)C(=O)Nc1cccn(CC(=O)NCC(CC)CC)c1=O [Compound E18, (S)—N1-(1-(2-(2-ethylbutylamino)-2-oxoethyl)-2-oxo-1,2-dihydropyridin-3-yl)-2-(1-methyl-1H-imidazole-5-carboxamido)-5-oxo-N6-pentylnexanediamide]
6.46 | CCC(CC)CNC(=O)Cn1cccc(NC(=O)[C@H](CCC(=O)C(=O)NC2CC2)NC(=O)c2cncn2C)c1=O [Compound E19, (S)—N1-cyclopropyl-N6-(1-(2-(2-ethylbutylamino)-2-oxoethyl)-2-oxo-1,2-dihydropyridin-3-yl)-5-(1-methyl-1H-imidazole-5-carboxamido)-2-oxonexanediamide]
6.22 | CCC(CC)CNC(=O)Cn1cccc(NC(=O)[C@H](CCC(=O)C(=O)NCc2ccccc2)NC(=O)c2cncn2C)c1=O [Compound E20, (S)—N1-benzyl-N6-(1-(2-(2-ethylbutylamino)-2-oxoethyl)-2-oxo-1,2-dihydropyridin-3-yl)-5-(1-methyl-1H-imidazole-5-carboxamido)-2-oxonexanediamide]
5.30 | CCC(CC)CNC(=O)Cn1cccc(NC(=O)[C@H](CCC(=O)C(=O)NC(C)(C)C)NC(=O)c2cncn2C)c1=O [Compound E21, (S)—N1-tert-butyl-N6-(1-(2-(2-ethylbutylamino)-2-oxoethyl)-2-oxo-1,2-dihydropyridin-3-yl)-5-(1-methyl-1H-imidazole-5-carboxamido)-2-oxonexanediamide]
5.96 | CCC(CC)CNC(=O)Cn1cccc(NC(=O)[C@H](CCC(=O)C(=O)NC2CC2)NC(=O)c2ccccc2)c1=O [Compound E23, (S)-2-benzamido-N6-cyclopropyl-N1-(1-(2-(2-ethylbutylamino)-2-oxoethyl)-2-oxo-1,2-dihydropyridin-3-yl)-5-oxonexanediamide]
6.15 | CCC(CC)CNC(=O)Cn1cccc(NC(=O)[C@H](CCC(=O)C(=O)NCC(=O)OC)NC(=O)c2cncn2C)c1=O [Compound E38, (S)-methyl 2-(6-(1-(2-(2-ethylbutylamino)-2-oxoethyl)-2-oxo-1,2-dihydropyridin-3-ylamino)-5-(1-methyl-1H-imidazole-5-carboxamido)-2,6-dioxohexanamido)acetat]
6.87 | CCC(CC)CNC(=O)Cn1cccc(NC(=O)[C@H](CCC(=O)C(=O)NCOC)NC(=O)c2cncn2C)c1=O [Compound E39, (S)—N1-(1-(2-(2-ethylbutylamino)-2-oxoethyl)-2-oxo-1,2-dihydropyridin-3-yl)-N6-(methoxymethyl)-2-(1-methyl-1H-imidazole-5-carboxamido)-5-oxohexanediamide]
6.30 | CCC(CC)CNC(=O)Cn1cccc(NC(=O)[C@H](CCC(=O)C(=O)Nc2cncs2)NC(=O)c2cncn2C)c1=O [Compound E40, (S)—N1-(1-(2-(2-ethylbutylamino)-2-oxoethyl)-2-oxo-1,2-dihydropyridin-3-yl)-2-(1-methyl-1H-imidazole-5-carboxamido)-5-oxo-N6-(thiazol-5-yl)hexanediamide]
5.84 | CCC(CC)CNC(=O)Cn1cccc(NC(=O)[C@H](CCC(=O)C(=O)NCS(=O)(=O)c2ccc(C)cc2)NC(=O)c2cncn2C)c1=O [Compound E41, (S)—N1-(1-(2-(2-ethylbutylamino)-2-oxoethyl)-2-oxo-1,2-dihydropyridin-3-yl)-2-(1-methyl-1H-imidazole-5-carboxamido)-5-oxo-N6-(tosylmethyl)hexanediamide]
5.80 | CCC(CC)CNC(=O)Cn1ccc(C)c(NC(=O)[C@H](CCC(=O)C(=O)NC)NC(=O)c2cncn2C)c1=O [Compound E42, (S)—N1-(1-(2-(2-ethylbutylamino)-2-oxoethyl)-4-methyl-2-oxo-1,2-dihydropyridin-3-yl)-N6-methyl-2-(1-methyl-1H-imidazole-5-carboxamido)-5-oxohexanediamide]
7.22 | CCC(CC)CNC(=O)Cn1cc(C)cc(NC(=O)[C@H](CCC(=O)C(=O)NC)NC(=O)c2cncn2C)c1=O [Compound E43, (S)—N1-(1-(2-(2-ethylbutylamino)-2-oxoethyl)-5-methyl-2-oxo-1,2-dihydropyridin-yl)-N6-methyl-2-(1-methyl-1H-imidazole-5-carboxamido)-5-oxohexanediamide]
7.10 | CCC(CC)CNC(=O)Cn1c(C)ccc(NC(=O)[C@H](CCC(=O)C(=O)NC)NC(=O)c2cncn2C)c1=O [Compound E44, (S)—N1-(1-(2-(2-ethylbutylamino)-2-oxoethyl)-6-methyl-2-oxo-1,2-dihydropyridin-3-yl)-N6-methyl-2-(1-methyl-1H-imidazole-5-carboxamido)-5-oxohexanediamide]
7.12 | CCC(CC)CNC(=O)Cn1cc(Cl)cc(NC(=O)[C@H](CCC(=O)C(=O)NC)NC(=O)c2cncn2C)c1=O [Compound E45, (S)—N1-(5-chloro-1-(2-(2-ethylbutylamino)-2-oxoethyl)-2-oxo-1,2-dihydropyridin-yl)-N6-methyl-2-(1-methyl-1H-imidazole-5-carboxamido)-5-oxohexanediamide]

SMILES | pIC50
COC(=O)[C@H](CC(C)C)NC(=O)[C@@H]1CCCN1C(=O)[C@@H](NC(=O)[C@H](CCC(=O)C(=O)NC1CC1)NC(=O)c1ccccc1)C(C)C [Compound E24, (S)-methyl 2-((S)-1-((S)-2-((S)-2-benzamido-6-(cyclopropylamino)-5,6-dioxonexan-amido)-3-methylbutanoyl)pyrrolidine-2-carboxamido)-4-methylpentanoate] | 6.26
